# Data: patent US10874743B2, “IRAK degraders and uses thereof” (Kymera Therapeutics, Inc., priority 2017, dated 2020)
# Tests used:
# [1] = biological target: T1, IRAK4 (Homo sapiens, UniProt Q9NWZ3); test: OCI-LY-10 MSD assay for IRAK4 DC50; format: cell-based; design: endogenous in cells; host or cells: OCI-LY10; settings: OCI-LY10 cells, 4 hr incubation, concentration required to degrade 50% of protein
# T1 sequence (Q9NWZ3 1-460): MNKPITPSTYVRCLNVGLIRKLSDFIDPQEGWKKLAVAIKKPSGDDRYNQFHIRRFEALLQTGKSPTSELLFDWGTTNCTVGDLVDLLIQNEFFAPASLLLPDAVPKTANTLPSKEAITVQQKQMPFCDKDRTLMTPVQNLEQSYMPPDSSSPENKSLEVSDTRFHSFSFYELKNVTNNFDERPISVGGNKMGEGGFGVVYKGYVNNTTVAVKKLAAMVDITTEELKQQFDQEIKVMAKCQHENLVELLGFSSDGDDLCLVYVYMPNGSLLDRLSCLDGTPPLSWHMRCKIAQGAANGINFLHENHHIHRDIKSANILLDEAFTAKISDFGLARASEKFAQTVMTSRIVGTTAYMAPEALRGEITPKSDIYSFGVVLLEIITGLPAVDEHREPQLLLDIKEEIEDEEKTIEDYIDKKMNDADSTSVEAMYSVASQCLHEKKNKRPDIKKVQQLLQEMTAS
# Protocol: A MSD assay was run to determine the concentration of compound required to degrade 50% of protein (DC50).
# Day 1 • Compounds were reconstituted to 10 mM in stock solutions. The stock solutions were diluted to 5 mM and 45 μL of each dilution was transferred to a 384 pp-plate. A 3 fold, 8-point serial dilution was performed by transferring 15 μL of compound into 30 μL DMSO using Janus. • 20 nL of each compounds were added into each well of a 96-well plate (Corning3799). • OCI-Ly10 cells were seeded into the 96-well plate at 3.0*10e^5 cells/100 μL/well. • The cell plate was shaken at 720 rpm for 5 min and incubated for 4 hr. • The 100 μL of cells were transferred into the 96-PCR plate and spun down at high speed for 5 mins. • The supernatant was discarded and 100 μL of RIPA lysis buffer with proteinase inhibitors was added per well. The plate was then sealed and shaken at 600 rpm and 4° C. for about 20 min. • The plate was then spun down at high speed (about 3200 g) for 30 min and then frozen in a −80° C. fridge. • A bare MSD plate (L15XA-3) was coated with 2 μg/mL of capture antibody (mouse Anti-IRAK4 antibody [2H9], ab119942) in PBS to 40 μL/well and incubated overnight at 4° C.
# Day 2 • The MSD coated plate was washed 3× (150 μL/well) with 1×TBST (CST #9997S). • The MSD plate was then blocked with 150 μL of blocking buffer [3% Blocker A (MSD, R93BA-4) in TBST]/well and shaken for 1 hr at R^† and 600 rpm. • The MSD plate was washed 3× (150 μL/well) with 1×TBST. The sample RIPA lysates were then added to the MSD plate (50 μL/well) and shaken for 1 hr at R^† and 600 rpm. • The MSD plate was washed 3× (150 μL/well) with 1×TBST and the primary detection antibody (Rabbit Anti-IRAK4 antibody [Y279], ab32511) was added to a final concentration of 1 μg/ml with 25 μL/well. The plate was then shaken for 1 hr at RT and 600 rpm. • The MSD plate was washed 3× (150 μL/well) with 1×TBST and the secondary detection antibody, SULFO-TAG anti-species antibody (Anti Rabbit Antibody (R32AB-5) MSD, R32AB-1) was added to a volume of 25 μL/well at a final concentration of 1 jag/ml. The plate was then shaken for 1 hr at RT and 600 rpm. • The MSD plate was then washed 3× (150 μL/well) with 1×TBST. • lx MSD reading buffer was then added (150 μL/well) and the plate was diluted with 4× water. (MSD, R92TC-2) • The MSD instrument was then read.
# Data Analysis • The remaining activity was calculated following the formula below:
# Calculate • The DC50 was calculated by fitting the Curve using Xlfit (v5.3.1.3), equation 201: Y=Bottom+(Top−Bottom)/(1+10^((Log IC50−X)*HillSlope))
# OCI-LY-10 DC50 results. The letter codes for IRAK4 DC50 indicate the concentration of compound required to degrade 50% of protein: A (<0.05 μM), B (0.05-0.1 μM), C (0.1-0.5 μM), D (0.5-1.0 μM), and E (>1.0 μM).
# [2] = biological target: T1, IRAK4; test: OCI-LY-10 degradation assay (western blot, % IRAK4 degraded after 4 hours); format: cell-based; design: endogenous in cells; host or cells: OCI-LY10; settings: OCI-LY10 cells, 4 hours
# Summary of the method: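 IRAK4 loss after 4 h at 37° C was scored A (>50%), B (>20-50%) or C (<20%) from infrared western blots of RIPA lysates, 20-25 μg protein per lane. Compound was applied at 0.003-10 μM final to OCI-LY10 cells cultured in RPMI-1640 with 20% FBS and 55 μM 2-ME.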
SMILES,DC50 [1],other results
NC(=O)c1nn(-c2ccc(C(=O)NCCOCCCOCCNc3cccc4c3C(=O)N(C3CCC(=O)NC3=O)C4=O)cc2)cc1NC(=O)c1coc(-c2ccnc(NCC3CC3)c2)n1 (centres unmarked) [I-213],< 50 nM,
Cn1cc(NC(=O)c2coc(-c3ccnc(NCC(F)(F)F)c3)n2)c(C(=O)NCCOCCOCCOCCOCCOCCNc2cccc3c2C(=O)N(C2CCC(=O)NC2=O)C3=O)n1 (centres unmarked) [I-214],> 1000 nM,
O=C1CCC(N2C(=O)c3cccc(NCCCCNCCCNC(=O)c4ccc(-n5cc(NC(=O)c6coc(-c7ccnc(NCC8CC8)c7)n6)c(C(F)(F)F)n5)cc4)c3C2=O)C(=O)N1 (centres unmarked) [I-218],> 1000 nM,
O=C1CCC(n2c(=O)n(CCOCCOCCNC(=O)c3ccc(-n4cc(NC(=O)c5coc(-c6ccnc(NCC7CC7)c6)n5)c(C(F)F)n4)cc3)c3ccccc32)C(=O)N1 (centres unmarked) [I-251],< 50 nM,
Cn1c(=O)n(C2CCC(=O)NC2=O)c2cccc(CCCOCCOCCNC(=O)c3ccc(-n4cc(NC(=O)c5coc(-c6ccnc(NCC7CC7)c6)n5)c(C(F)F)n4)cc3)c21 (centres unmarked) [I-253],< 50 nM,
O=C1CCC(N2C(=O)c3cccc(NCCOCCOCCNC(=O)c4ccc(-n5cc(NC(=O)c6coc(-c7ccnc(NCC(F)(F)F)c7)n6)c(C(F)F)n5)cc4)c3C2=O)C(=O)N1 (centres unmarked) [I-261],100 to 500 nM,
O=C1CCC(N2C(=O)c3cccc(NC4CCN(CCOCCNC(=O)c5ccc(-n6cc(NC(=O)c7coc(-c8ccnc(NCC9CC9)c8)n7)c(C(F)F)n6)cc5)CC4)c3C2=O)C(=O)N1 (centres unmarked) [I-268],< 50 nM,
O=C1CCC(N2C(=O)c3ccc(NC4CCN(CCOCCNC(=O)c5ccc(-n6cc(NC(=O)c7coc(-c8ccnc(NCC9CC9)c8)n7)c(C(F)F)n6)cc5)CC4)cc3C2=O)C(=O)N1 (centres unmarked) [I-271],100 to 500 nM,
O=C1CCC(N2C(=O)c3cccc(N4CCN(CCOCCOCCNC(=O)c5ccc(-n6cc(NC(=O)c7coc(-c8ccnc(NCC9CC9)c8)n7)c(C(F)F)n6)cc5)CC4)c3C2=O)C(=O)N1 (centres unmarked) [I-273],50 to 100 nM,
O=C1CCC(N2C(=O)c3cccc(N4CCN(CCOCCNC(=O)c5ccc(-n6cc(NC(=O)c7coc(-c8ccnc(NCC9CC9)c8)n7)c(C(F)F)n6)cc5)CC4)c3C2=O)C(=O)N1 (centres unmarked) [I-274],100 to 500 nM,
Cn1c(=O)n(C2CCC(=O)NC2=O)c2cccc(CCCOCCOCCNC(=O)c3ccc(-n4cc(NC(=O)c5coc(-c6ccnc(NCC(F)(F)F)c6)n5)c(C(F)F)n4)cc3)c21 (centres unmarked) [I-280],< 50 nM,
"CC(C)(C)[C@H](NC(=O)COCCOCCOCCNc1cccc2c1C(=O)N(C1CCC(=O)NC1=O)C2=O)C(=O)N1C[C@H](OC(=O)[C@@H]2CCCN2)C[C@H]1C(=O)NCc1ccc(-n2cc(NC(=O)c3coc(-c4ccnc(NCC5CC5)c4)n3)c(C(F)F)n2)cc1 (stereo partly drawn) [I-286, [(3R,5S)-5-[[4-[4-[[2-[2-(cyclopropylmethylamino)-4-pyridyl]oxazole-4-carbonyl]amino]-3-(difluoromethyl)pyrazol-1-yl]phenyl]methylcarbamoyl]-1-[(2S)-2-[[2-[2-[2-[2-[[2-(2,6-dioxo-3-piperidyl)-1,3-dioxo-isoindolin-4-yl]amino]ethoxy]ethoxy]ethoxy]acetyl]amino]-3,3-dimethyl-butanoyl]pyrrolidin-3-yl](2S)-pyrrolidine-2-carboxylate]",> 1000 nM,
O=C1CCC(N2C(=O)c3cccc(NCCOCCOCCOCC(=O)N4C[C@H](OC(=O)[C@@H]5CCCN5)C[C@H]4C(=O)NCc4ccc(-n5cc(NC(=O)c6coc(-c7ccnc(NCC8CC8)c7)n6)c(C(F)F)n5)cc4)c3C2=O)C(=O)N1 (some centres unmarked) [I-289],> 1000 nM,
Cn1cc(NC(=O)c2coc(-c3ccnc(NCC(F)(F)F)c3)n2)c(C(=O)NCCOCCOCCOCCNc2cccc3c2C(=O)N(C2CCC(=O)NC2=O)C3=O)n1 (centres unmarked) [I-292],> 1000 nM,
Cc1ncsc1-c1ccc(CNC(=O)[C@@H]2C[C@@H](O)CN2C(=O)[C@@H](NCCOCCOCCOCCNC(=O)C2CCC(n3cc(NC(=O)c4coc(-c5ccnc(NCC(F)(F)F)c5)n4)c(C(N)=O)n3)CC2)C(C)(C)C)cc1 (some centres unmarked) [I-293],> 1000 nM,
Cn1cc(NC(=O)c2coc(-c3ccnc(NCC(F)(F)F)c3)n2)c(C(=O)NCCCOCCCOCCCNc2cccc3c2C(=O)N(C2CCC(=O)NC2=O)C3=O)n1 (centres unmarked) [I-294],> 1000 nM,
Cc1ncsc1-c1ccc(CNC(=O)[C@@H]2C[C@@H](O)CN2C(=O)[C@@H](NCCOCCOCCOCCNC(=O)c2nn(C)cc2NC(=O)c2coc(-c3ccnc(NCC(F)(F)F)c3)n2)C(C)(C)C)cc1 [I-295],> 1000 nM,
COCC(=O)N[C@H](C(=O)N1Cc2cc(OCCOCCOCCOCCOCCNC(=O)c3ccc(-n4cc(NC(=O)c5coc(-c6ccnc(NCC7CC7)c6)n5)c(C(F)F)n4)cc3)ccc2CC1C(=O)N[C@@H]1CCCc2ccccc21)C(C)(C)C (some centres unmarked) [I-296],> 1000 nM,
Cc1ncsc1-c1ccc(CNC(=O)[C@@H]2C[C@@H](O)CN2C(=O)[C@@H](NC(=O)COCCOCCOCCOCCNC(=O)c2nn(C)cc2NC(=O)c2coc(-c3ccnc(NCC(F)(F)F)c3)n2)C(C)(C)C)cc1 [I-299],> 1000 nM,
Cn1cc(NC(=O)c2cocn2)c(C(=O)NCCOCCOCCOCCNc2cccc3c2C(=O)N(C2CCC(=O)NC2=O)C3=O)n1 (centres unmarked) [I-300],> 1000 nM,
Cn1cc(NC(=O)c2coc(-c3ccncc3)n2)c(C(=O)NCCOCCOCCOCCNc2cccc3c2C(=O)N(C2CCC(=O)NC2=O)C3=O)n1 (centres unmarked) [I-301],> 1000 nM,
CN(CCOCCCc1cccc2c1C(=O)N(C1CCC(=O)NC1=O)C2=O)Cc1ccc(-n2cc(NC(=O)c3coc(-c4ccnc(NCC5CC5)c4)n3)c(C(N)=O)n2)cc1 (centres unmarked) [I-313],< 50 nM,
O=C1CCC(N2C(=O)c3cccc(NC4CCN(CCOCCOCCNCc5ccc(-n6cc(NC(=O)c7coc(-c8ccnc(NCC9CC9)c8)n7)c(C(F)F)n6)cc5)CC4)c3C2=O)C(=O)N1 (centres unmarked) [I-334],50 to 100 nM,
O=C1CCC(N2Cc3c(NC4CCN(CCOCCOCCNCc5ccc(-n6cc(NC(=O)c7coc(-c8ccnc(NCC9CC9)c8)n7)c(C(F)F)n6)cc5)CC4)cccc3C2=O)C(=O)N1 (centres unmarked) [I-384],500 to 1000 nM,
O=C1CCC(N2C(=O)c3cccc(N4CCN(CCOCCNCc5ccc(-n6cc(NC(=O)c7coc(-c8ccnc(NCC9CC9)c8)n7)c(C(F)F)n6)cc5)CC4)c3C2=O)C(=O)N1 (centres unmarked) [I-390],100 to 500 nM,
O=C1CCC(N2C(=O)c3cccc(N4CCN(CCOCCOCCOCCNCc5ccc(-n6cc(NC(=O)c7coc(-c8ccnc(NCC9CC9)c8)n7)c(C(F)F)n6)cc5)CC4)c3C2=O)C(=O)N1 (centres unmarked) [I-391],100 to 500 nM,
"NC(=O)c1nn(CCCCCCOCCOCCNc2cccc3c2C(=O)N(C2CCC(=O)NC2=O)C3=O)cc1NC(=O)c1coc(-c2ccnc(NCC3CC3)c2)n1 (centres unmarked) [I-435, N-[3-carbamoyl-1-[6-[2-[2-[[2-(2,6-dioxo-3-piperidyl)-1,3-dioxo-isoindolin-4-yl]amino]ethoxy]ethoxy]hexyl]pyrazol-4-yl]-2-[2-(cyclopropylmethylamino)-4-pyridyl]oxazole-4-carboxamide]",,OCI-LY10 % IRAK4 Degradation (0.01 uM) ([2]; 0.01 uM compound): C (<20% degradation); OCI-LY10 % IRAK4 Degradation (0.1 uM) ([2]; 0.1 uM compound): C (<20% degradation); OCI-LY10 % IRAK4 Degradation (1 uM) ([2]; 1 uM compound): C (<20% degradation)
